# Results reported in ChEMBL document CHEMBL1201862, “PubChem BioAssay data set” (2004).
# The source made the active and inactive calls. For most assays here, no stated cut-off is given here; in the data, actives have a measured EC50 and inactives only a lower limit.
# How the values were obtained:
# [1] = biological target: Cytochrome P450 3A4 (Homo sapiens, UniProt P08684);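 further: CYP3A4 tested as one member of a cytochrome P450 panel screen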
# [2] = test system: H9c2; test: cells; type: functional, cell-based; details: Rattus norvegicus, H9c2, Myocardium;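 further: confirmatory concentration-response retest of ultra-high-throughput screening hits for modulation of myocardial damage; cell death induced by hydrogen peroxide oxidative stress; compound pretreatment for 60 min then peroxide exposure for 2 h; potency is for protecting the cells against peroxide damage rather than for killing them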
# [3] = luciferase reporter signal suppression in cells – H4 neuroglioma cells, luminescence, dose response (AID 1990); type: functional, cell-based
# [4] = Luminescence Cell-Based Dose Response HTS to Identify Inhibitors of 5'UTR Stem-Loop Driven Prion Protein mRNA Translation in H4 Neuroglioblastoma Cells. [Related pubchem assays: 1827 (Project Summary), 1813 (Primary HTS)]; type: functional
# [5] = alpha-synuclein stem-loop luciferase translation blockers – H4 neuroglioma cells, luminescence, confirmation (AID 1988); type: functional, cell-based
# [6] = test system: Vero; test: cells; type: functional; details: Chlorocebus sabaeus
# [7] = biological target: Luciferin 4-monooxygenase (Photinus pyralis, UniProt P08659); test: inhibition of purified Photinus pyralis luciferase – biochemical, luminescence, dose response (AID 1891)
# [8] = Luminescence Cell-Based Dose Confirmation HTS to Identify Inhibitors of Platelet Dense Granule Release. [Related pubchem assays: 1663 (Primary HTS), 1678 (Summary of Project)]; type: functional
# [9] = reduction of Shn3 3'UTR-driven luciferase in osteoblasts – cell-based, Clone20 osteoblasts, firefly luciferase, cherry-picked, dose response (AID 624132); type: functional;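 further: firefly luciferase luminescence from reporter carrying the Shn3 3'UTR in osteoblasts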
# [10] = biological target: Paired box protein Pax-8 (Homo sapiens, UniProt Q06710); test: PAX8 transcriptional activity inhibition in RMG-I – RMG-I cells, luciferase, cherry-pick, dose response (AID 687027); type: functional, cell-based;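 further: luciferase reporter driven by Pax8 target thyroperoxidase promoter measured by SteadyGlo luminescence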
# [11] = biological target: Cytochrome P450 2C9 (Homo sapiens, UniProt P11712)
# [12] = Trypanosoma cruzi growth suppression in host cells – NIH3T3 host cells, beta-gal luminescence, confirmation (AID 2044); type: functional, cell-based;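 further: intracellular parasites grown in NIH/3T3 mouse fibroblasts as host cells; luminescent beta-galactosidase reporter signal from transgenic T. cruzi replicating inside host cells; inhibitors lower the luminescence signal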
# [13] = NIH3T3 cell viability loss – ATP luminescence, mouse fibroblasts, counter-screen, dose response (AID 2010); type: functional, cell-based;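 further: cells exposed to compound for about 90 hours before reading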
# [14] = test system: BJ; test: BJ-TERT fibroblast viability loss – cell-based, RAS-independent, luminescence, dose response (AID 1933); type: functional; details: Homo sapiens
# [15] = test system: BJ; test: cells; type: functional, cell-based; details: Homo sapiens
# [16] = test system: BJ; test: BJ-TERT-LT-ST fibroblast viability loss – cell-based, RAS-independent, luminescence, dose response (AID 1935); type: functional; details: Homo sapiens;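 further: BJ fibroblasts immortalized with TERT plus LT and ST oncogenes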
# [17] = DRD fibroblast viability loss – cell-based, non-viral oncogenic, luminescence, dose response (AID 1934); type: functional; details: Homo sapiens
# [18] = biological target: Cytochrome P450 2D6 (Homo sapiens, UniProt P10635);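 further: CYP2D6 member of a cytochrome P450 panel assay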
# [19] = biological target: T1, Microphthalmia-associated transcription factor (Homo sapiens, UniProt O75030); test: reducers of TRPM1 reporter luminescence, concentration series – cell-based, SK-MEL-5, cherry-picked, set 3, MITF inhibitor project, dose response (AID 493073); type: functional;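 further: SK-MEL-5 melanoma cells with luciferase driven by the MITF target TRPM1 promoter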
# T1 sequence (O75030 whole entry): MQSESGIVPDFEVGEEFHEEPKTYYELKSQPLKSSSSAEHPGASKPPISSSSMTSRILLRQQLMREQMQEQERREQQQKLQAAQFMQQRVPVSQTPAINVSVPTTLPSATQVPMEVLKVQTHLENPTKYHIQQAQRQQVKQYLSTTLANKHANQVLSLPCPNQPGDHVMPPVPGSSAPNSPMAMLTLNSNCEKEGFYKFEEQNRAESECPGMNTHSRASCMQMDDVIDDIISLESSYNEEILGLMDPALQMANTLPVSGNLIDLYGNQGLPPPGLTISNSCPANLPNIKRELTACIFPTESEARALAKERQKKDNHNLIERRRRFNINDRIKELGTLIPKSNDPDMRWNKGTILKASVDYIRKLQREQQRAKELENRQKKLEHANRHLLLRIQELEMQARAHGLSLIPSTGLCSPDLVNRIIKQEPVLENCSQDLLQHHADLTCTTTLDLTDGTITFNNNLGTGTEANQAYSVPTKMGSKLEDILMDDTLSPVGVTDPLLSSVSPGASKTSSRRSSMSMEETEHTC
# [20] = test system: Streptococcus sp. 'group A'; test: Streptococcus pyogenes SK(-)GAS viability under kanamycin – luminescence, BacTiterGlo, confirmation, counter-screen for streptokinase expression inhibitor project, dose response (AID 1900); type: functional, organism-based
# [21] = biological target: T2, Streptokinase A (Streptococcus pyogenes serotype M1, UniProt P10520); test: viability-normalized secreted streptokinase activity reduction – plasminogen activation absorbance, OD405, dose response (AID 1914); type: functional, Streptococcus pyogenes M1 GAS;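 further: secreted streptokinase activity via plasminogen activation per viability signal from cell pellet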
# T2 sequence (P10520 whole entry): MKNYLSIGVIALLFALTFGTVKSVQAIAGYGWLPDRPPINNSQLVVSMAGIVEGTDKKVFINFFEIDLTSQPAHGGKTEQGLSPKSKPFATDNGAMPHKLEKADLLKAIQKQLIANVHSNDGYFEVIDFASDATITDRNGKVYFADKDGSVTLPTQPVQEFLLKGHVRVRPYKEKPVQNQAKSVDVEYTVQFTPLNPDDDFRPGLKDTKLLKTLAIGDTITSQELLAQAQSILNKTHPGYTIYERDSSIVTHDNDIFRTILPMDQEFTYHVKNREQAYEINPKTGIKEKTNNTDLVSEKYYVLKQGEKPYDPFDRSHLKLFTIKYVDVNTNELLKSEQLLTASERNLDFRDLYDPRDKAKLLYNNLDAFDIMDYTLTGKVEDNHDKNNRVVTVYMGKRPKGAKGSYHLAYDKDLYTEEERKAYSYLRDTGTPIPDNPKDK
# [22] = test system: Streptococcus; test: GAS UMAA2166 growth inhibition – luminescence, BacTiterGlo, counter-screen for streptokinase expression inhibitor project, dose response (AID 1915); type: functional, organism-based;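 further: potency for reduction of bacterial viability or growth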
# [23] = test system: INS1; test: INS-1E survival protection against cytokine death – cell-based, luminescence, retest, dose response (AID 449756); type: functional; details: Rattus norvegicus;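 further: cell death triggered by IL-1 beta plus TNF-alpha plus IFN-gamma mixture; protective hits raise ATP signal compared with cytokine alone wells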
# Cytochrome P450 3A4, sequence (P08684 whole entry): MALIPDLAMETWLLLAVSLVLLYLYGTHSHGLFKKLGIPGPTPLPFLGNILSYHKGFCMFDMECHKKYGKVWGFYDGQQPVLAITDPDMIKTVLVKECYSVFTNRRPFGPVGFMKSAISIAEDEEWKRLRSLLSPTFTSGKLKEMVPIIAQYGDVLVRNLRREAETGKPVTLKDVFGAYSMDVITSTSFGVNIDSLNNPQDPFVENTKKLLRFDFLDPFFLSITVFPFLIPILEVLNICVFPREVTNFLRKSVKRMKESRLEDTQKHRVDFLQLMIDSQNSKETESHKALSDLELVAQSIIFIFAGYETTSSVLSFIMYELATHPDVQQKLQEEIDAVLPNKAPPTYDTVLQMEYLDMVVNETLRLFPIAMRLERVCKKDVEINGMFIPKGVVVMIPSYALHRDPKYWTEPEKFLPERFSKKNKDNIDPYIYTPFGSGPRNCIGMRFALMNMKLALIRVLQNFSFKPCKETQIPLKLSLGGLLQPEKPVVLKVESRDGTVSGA
# Cytochrome P450 2C9, sequence (P11712 whole entry): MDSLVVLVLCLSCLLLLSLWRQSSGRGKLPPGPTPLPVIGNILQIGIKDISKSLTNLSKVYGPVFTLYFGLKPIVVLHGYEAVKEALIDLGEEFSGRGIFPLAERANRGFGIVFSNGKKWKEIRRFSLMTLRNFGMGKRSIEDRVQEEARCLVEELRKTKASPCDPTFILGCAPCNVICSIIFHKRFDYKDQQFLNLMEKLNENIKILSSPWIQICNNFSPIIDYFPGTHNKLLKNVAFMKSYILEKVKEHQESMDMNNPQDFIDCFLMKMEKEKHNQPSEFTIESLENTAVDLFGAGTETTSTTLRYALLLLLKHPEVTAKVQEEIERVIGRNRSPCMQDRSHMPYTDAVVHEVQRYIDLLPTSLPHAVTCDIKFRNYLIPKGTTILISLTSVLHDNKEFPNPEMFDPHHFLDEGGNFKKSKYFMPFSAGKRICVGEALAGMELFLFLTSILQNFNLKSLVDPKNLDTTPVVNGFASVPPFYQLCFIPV
# Paired box protein Pax-8, sequence (Q06710 whole entry): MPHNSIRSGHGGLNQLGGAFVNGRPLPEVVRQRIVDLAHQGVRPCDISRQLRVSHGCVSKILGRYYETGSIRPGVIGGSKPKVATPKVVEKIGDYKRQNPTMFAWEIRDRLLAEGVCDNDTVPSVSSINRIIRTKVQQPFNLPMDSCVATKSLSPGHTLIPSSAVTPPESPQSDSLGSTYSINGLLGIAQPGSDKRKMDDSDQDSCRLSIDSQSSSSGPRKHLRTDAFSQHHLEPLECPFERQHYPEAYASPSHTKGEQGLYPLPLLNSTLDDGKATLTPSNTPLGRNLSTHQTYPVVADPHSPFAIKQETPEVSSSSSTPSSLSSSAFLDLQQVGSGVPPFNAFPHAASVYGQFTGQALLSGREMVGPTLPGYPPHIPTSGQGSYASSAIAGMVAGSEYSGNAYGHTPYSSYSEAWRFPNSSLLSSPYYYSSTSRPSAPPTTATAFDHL
# Cytochrome P450 2D6, sequence (P10635 whole entry): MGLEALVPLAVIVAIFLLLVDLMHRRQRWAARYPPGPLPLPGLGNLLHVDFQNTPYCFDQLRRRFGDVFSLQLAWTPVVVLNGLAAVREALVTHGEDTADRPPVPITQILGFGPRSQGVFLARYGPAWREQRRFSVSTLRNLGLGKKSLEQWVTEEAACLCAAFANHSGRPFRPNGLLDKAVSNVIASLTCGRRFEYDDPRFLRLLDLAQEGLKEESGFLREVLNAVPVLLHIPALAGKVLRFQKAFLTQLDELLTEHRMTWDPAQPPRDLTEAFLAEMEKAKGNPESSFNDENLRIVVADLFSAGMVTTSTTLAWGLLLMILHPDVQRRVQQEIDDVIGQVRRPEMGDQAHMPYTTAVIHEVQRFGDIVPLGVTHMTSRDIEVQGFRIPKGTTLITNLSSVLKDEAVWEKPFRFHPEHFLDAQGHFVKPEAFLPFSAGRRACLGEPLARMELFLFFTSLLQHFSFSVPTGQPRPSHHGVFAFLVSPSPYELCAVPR
# Luciferin 4-monooxygenase, sequence (P08659 whole entry): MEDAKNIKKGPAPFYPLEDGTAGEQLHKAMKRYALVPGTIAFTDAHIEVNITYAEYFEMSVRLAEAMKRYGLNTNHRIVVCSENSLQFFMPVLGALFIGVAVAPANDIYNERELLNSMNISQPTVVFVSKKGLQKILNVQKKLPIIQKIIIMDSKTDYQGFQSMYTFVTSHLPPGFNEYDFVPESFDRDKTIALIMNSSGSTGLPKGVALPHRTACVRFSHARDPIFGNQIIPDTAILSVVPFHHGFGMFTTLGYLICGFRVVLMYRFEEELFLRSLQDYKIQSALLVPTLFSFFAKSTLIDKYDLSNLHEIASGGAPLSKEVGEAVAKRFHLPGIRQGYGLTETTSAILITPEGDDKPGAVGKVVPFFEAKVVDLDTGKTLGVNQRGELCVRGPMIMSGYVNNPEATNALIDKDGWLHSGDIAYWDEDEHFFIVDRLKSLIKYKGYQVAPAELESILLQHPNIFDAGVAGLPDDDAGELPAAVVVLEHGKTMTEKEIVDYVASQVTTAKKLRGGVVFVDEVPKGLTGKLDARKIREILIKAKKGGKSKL
smiles,measurement,setting,value
Nc1ncnc(N(c2ccccc2)C2CCCCC2)c1[N+](=O)[O-],AC50,[1],6.31 µM (inconclusive)
COc1cccc(-c2nn3c(-c4ccco4)nnc3s2)c1,IC50,[2],> 79 µM (inactive)
COCCn1c(=O)cnc2cnc(Oc3ccc(OC)cc3)nc21,AC50,[1],15.8 µM (inconclusive)
CCOC(=O)CCCc1c[nH]c2ccccc12,AC50,[1],31.6 µM (inconclusive)
COc1ccc(-c2csc(Cc3nnc(N4CCOCC4)n3-c3ccccc3)n2)cc1OC,EC50,[3],> 120 µM (not active)
same,EC50,[4],> 120 µM (not active)
same,EC50,[5],19.4 µM (active)
O=C1NC(=S)NC(=O)C1=Cc1c[nH]c2ccccc12,CC50,[6],> 25 µM (active)
COc1ccccc1-c1cc(NC=O)c2ncc(-c3cccc(C(C)=O)c3)n2c1,IC50,[2],10 µM (active)
Cn1cc(CN(CCO)Cc2cccs2)c(-c2cccc(Cl)c2)n1,EC50,[7],> 112 µM (not active)
same,EC50,[8],> 112 µM (not active)
same,AC50,[9],3.25 µM (active)
C[C@@H]1CCCCO[C@H](CN(C)S(=O)(=O)c2cccs2)[C@H](C)CN([C@@H](C)CO)C(=O)c2cc(NC(=O)CCC(F)(F)F)ccc2O1,AC50,[10],27.6 µM (active)
O=C(NCC1CCCO1)c1onc(CSc2ccccc2F)c1C(=O)O (stereo unspecified),AC50,[1],25.1 µM (inconclusive)
same,AC50,[11],6.31 µM (inconclusive)
CC(OC(=O)Cn1[nH]c(=O)c2ccccc2c1=O)C(=O)Nc1cccc(Cl)c1 (stereo unspecified),IC50,[2],> 79 µM (inactive)
Cc1ccc(C(=O)N/C(=C\c2ccc(-c3cccc([N+](=O)[O-])c3)o2)C(=O)NCCCN2CCOCC2)cc1,CC50,[6],> 25 µM (active)
C/C(=N\NC(=S)Nc1ccc(F)cc1)C1CC1,AC50,[1],14.1 µM (inconclusive)
Oc1c(/C=N/c2cccc(C(F)(F)F)c2)cnn1-c1cccc(Cl)n1,AC50,[1],25.1 µM (inconclusive)
same,AC50,[11],10 µM (inconclusive)
COc1cc(OC)cc(C(=O)Nc2ccc(-c3nc4ccccc4o3)cc2)c1,EC50,[12],1.06 µM (active)
same,EC50,[13],> 16 µM (not active)
same,IC50,[2],> 79 µM (inactive)
O=C1NC(c2cccs2)Nc2ccccc21 (stereo unspecified),IC50,[2],18.2 µM (active)
COCCn1ccc2c(OCC(=O)Nc3ccccc3OC)cccc2c1=O,IC50,[2],> 79 µM (inactive)
COc1ccc(Nc2nc(-c3sc(C)nc3C)cs2)c(OC)c1,EC50,[14],62.3 µM (active)
same,EC50,[15],4.21 µM (inconclusive)
same,EC50,[16],> 150 µM (inconclusive)
same,EC50,[17],4.81 µM (active)
Cc1ccc(Cn2c(SCc3cccnc3)nc3c2c(=O)n(C)c(=O)n3C)cc1,EC50,[3],> 120 µM (not active)
same,EC50,[4],> 120 µM (not active)
same,EC50,[5],> 120 µM (not active)
CCOC(=O)CC1(C)NC(C(=O)O)C(C)(C)S1 (stereo unspecified),CC50,[6],> 25 µM (active)
COc1ccccc1-c1nc(Nc2ccncc2)c2ccccc2n1,AC50,[18],25.1 µM (inconclusive)
same,AC50,[1],3.16 µM (inconclusive)
COc1cc(-c2cc3nc4ccccc4n3c(N)c2C#N)cc(OC)c1OC,EC50,[3],17.2 µM (active)
same,EC50,[4],16.4 µM (active)
same,EC50,[5],> 120 µM (not active)
O=C1NC(=O)C(=CNc2ccccc2[N+](=O)[O-])C(=O)N1,EC50,[3],> 120 µM (not active)
same,EC50,[4],20.7 µM (active)
same,EC50,[5],> 120 µM (not active)
CCN1CCc2c(sc(NC(=O)c3ccc(S(=O)(=O)N4CCCCCC4)cc3)c2C(=O)NC)C1,AC50,[19],16.6 µM (active)
O=C(CCCN1C(=O)/C(=C/c2ccccc2OC(F)F)SC1=S)Nc1cccnc1,CC50,[6],8.53 µM (active)
same,AC50,[10],7.19 µM (active)
O=C(c1ccco1)N1CCC2(CCCN(Cc3ccccc3)C2)CC1,AC50,[1],12.6 µM (inconclusive)
COC(=O)c1ccccc1NC(=O)c1ccc2nccnc2c1,IC50,[2],13.3 µM (active)
COc1ccc(N(Cc2cc3cc(OC)ccc3nc2O)C(=O)c2cccnc2)cc1,IC50,[2],> 79 µM (inactive)
COc1ccc(CCNC(=O)C(=O)NCC2CCCN2S(=O)(=O)c2ccccc2)cc1OC (stereo unspecified),IC50,[2],> 79 µM (inactive)
Cc1cc(NC(=O)CSc2nnc(C3CC3)n2N)no1,EC50,[3],> 120 µM (not active)
same,EC50,[4],> 120 µM (not active)
same,EC50,[5],> 120 µM (not active)
Cc1ccc(-n2nc3c(=O)n(CCCC(=O)NCc4ccco4)nc(C)c3c2C)cc1,EC50,[3],17.1 µM (active)
same,EC50,[4],43 µM (active)
same,EC50,[5],> 120 µM (not active)
COc1ccc(/C=C/C(=O)NC(=S)NNC(=O)[C@H]2C[C@@H]2c2ccccc2)cc1OC,EC50,[20],0.57 µM (active)
same,EC50,[21],> 150 µM (not active)
same,EC50,[22],20.4 µM (active)
same,CC50,[6],> 25 µM (active)
COc1cc2cc3c4cc(OC)c(OC)cc4cc[n+]3c(C)c2cc1OC,AC50,[1],10 µM (inconclusive)
COc1ccc(OC)c(C(=O)/C=C/c2cccnc2)c1,CC50,[6],17 µM (active)
CSc1nsc(SCc2ccc(Cl)cc2)n1,EC50,[14],> 150 µM (not active)
same,EC50,[15],> 150 µM (not active)
same,EC50,[16],> 150 µM (inconclusive)
same,EC50,[17],> 150 µM (not active)
c1ccc(C[n+]2cccc3c4ccccc4ccc32)cc1,AC50,[19],3.41 µM (active)
Cc1nn(C)c(C)c1/C=C(/C(=O)C(C)(C)C)n1cncn1,EC50,[4],> 120 µM (not active)
same,EC50,[5],> 120 µM (not active)
O=C(N/N=C/c1ccccc1O)C1CC(=O)N(c2ccc(Cl)cc2)C1 (stereo unspecified),EC50,[3],15.2 µM (active)
same,EC50,[4],24.1 µM (active)
same,EC50,[5],7.99 µM (active)
same,AC50,[23],3.69 µM (active)
